This is an account of results in patent US6280760A, “Peptide-coated implants and methods for producing same” (Merck Patent Gesellschaft mit beschraenkter Haftung, priority 1997, dated 2001).

The test system of assay [1] is osteoblasts/platelets mixture. The experiment in a line: Adhesion of an osteoblast/platelet mixture to PMMA bone cement shaped articles coated with cell-selective acrylate peptides. Format: cell-based, mouse, human. The conditions noted are these: second part experiment; 100 μM peptide in the coating solution. The method, then:
(§1) b. In the second part experiment, PMMA shaped articles were likewise coated with the acrylate peptides 3 and 5, but only in a concentration in the coating solution of 100 μM in each case. These RGD peptide-coated materials were then inoculated in parallel with osteoblasts, platelets or an osteoblast/platelet mixture and their cell adhesion was determined. MC3T3 H1 osteoblasts (350,000 cells/cm^2), human platelets (50 million cell/cm^2) and a cell mixture (350,000 osteoblasts/cm^2 […] 50 million platelets/cm^2) were in each case inoculated in parallel both onto acrylate peptide 3- and acrylate peptide 5-coated PMMA shaped articles and their cell adhesion was determined as described in Example 3.

Assay [2] relates to human platelets. Description: Adhesion of human platelets to PMMA bone cement shaped articles coated with cell-selective acrylate peptides. The settings on record: for cell adhesion, calculated Abs (405 nm), platelets: first part experiment. The assay is classed as cell-based.
Description: (§2) The model used for material coating with RGD peptides of different cell selectivity to obtain implants having locally differentiated bioactive coating patterns which should stimulate the adhesion of different cell species was polymerized PMMA bone cement shaped articles. To these were covalently coupled two RGD peptides of different cell selectivity. In this case acrylate peptide 3, type iiia, having a selectivity for alphav beta3 -/alphav beta5 -integrin-bearing osteoblasts, and acrylate peptide 5, type iiia, having a selectivity for […] -positive platelets were bonded to the PMMA shaped articles as described for Example 3.
(§3) a. In the first part experiment, PMMA shaped articles were coated with the acrylate peptides 3 and 5 in concentrations in the coating solution of 100 μM, 10 μM and 1 μM in each case. These RGD peptide-coated materials were then inoculated in parallel with osteoblasts and platelets and their cell adhesion was determined.
(§4) MC3T3 H1 osteoblasts (350,000 cells/cm^2) and human platelets (50 million cells/cm^2) were in each case inoculated in parallel both onto acrylate peptide 3- and acrylate peptide 5-coated PMMA shaped articles and their cell adhesion was determined as described in Example 3.
Human platelets were prepared following the process of Shattil and Brass (J. Biol. Chem. 262:992-1000, 1987).
as §1

Assay [3] relates to MC3T3 H1 osteoblasts. Description: Adhesion of MC3T3 H1 osteoblasts to PMMA bone cement shaped articles coated with cell-selective acrylate peptides. Format: cell-based, mouse. The conditions noted are these: for cell adhesion, calculated Abs (405 nm), osteoblasts: first part experiment.
Description: as §2, §3, §4, §1

Assay [4] concerns MC3T3 H1 osteoblasts. The experiment in a line: Adhesion of MC3T3 H1 osteoblasts to PMMA moulded articles coated with acrylate RGD peptides. The assay is classed as cell-based, mouse. On the procedure: For the covalent coupling of these peptides to polymerized PMMA (polymethyl methacrylate) surfaces, appropriate shaped articles of differing porosity (diameter: 10 mm; height: 2 mm) were prepared from three different PMMA components.
Bone cement based on PMMA (Merck KGaA, Germany, Licence No. 5181.00.00) corresponding to the product description (40 g of powder+20 ml of liquid).
10 g of PMMA/PHEMA (polyhydroxyethyl methacrylate) granules, particle size 0.5-0.6 mm (Biomet) were mixed with 1.3 ml of an HEMA solution (68.6% HEMA, 29.4% TEGMA [triethylene glycol dimethacrylate], 2% tBPB, [tert-butyl peroxybenzoate]) and adhered by means of this to a porous support material.
10 g of PMMA granules (Plex Y7H, Rohm, Germany), particle fraction 0.7-2 mm were mixed with 1.5 ml of a methyl methacrylate (MMA) solution (68.6% MMA, 29.4% TEGMA, 2% tBPB) and adhered by this means to a porous support material.
For the covalent coupling of the acrylate peptides to the prepolymerized PMMA moulded articles, stock solutions of the acrylate peptides 1, 2, 3 and 4 were prepared in a final concentration of 100 μM in each case in DMSO/0.2% camphorquinone (w/v). Then, by dilution with isopropanol/0.2% camphorquinone (w/v), concentration series having final peptide concentrations of 0.1 nM, 1 nM, 10 nM, 100 nM, 1 μM and 10 μM in each case were prepared. The moulded articles were incubated in daylight and at room temperature for 2 hours and then stored at 4° C. in the dry state. Before use, the samples were washed with PBS, pH 7.4, to remove unbound peptides and stored at 4° C. in PBS, pH 7.4, overnight.
By addition of 250 μl/moulded article each of a 5% strength BSA solution in PBS, pH 7.4, and subsequent incubation for 2 hours at room temperature and washing once with PBS, pH 7.4, non-specific cell-binding sites were blocked.
Subsequently, the adhesion of osteoblasts of the MC3T3 H1 line, obtained from the calvaria of neonatal mice (Heermeier et al., 1995, Cells and Materials 5: 309-321) to the above-described peptide-coated surfaces was investigated.
The MC3T3 H1 osteoblasts were inoculated at an inoculation density of 48,000 cells/cm^2, as described above, in Costar 48-well plates, with PMMA moulded articles coated with RGD peptide and then incubated for 1 hour at 37° C., 95% atmospheric humidity and 5% CO2. Cells non-adhered during the experiment were then washed off twice with PBS, pH 7.4.
(§5) The quantification of the adhered cells was carried out indirectly via the activity determination of the cellular enzyme N-acetylhexosaminidase using an appropriate standard curve according to the method of Landegren (1984, J. Immunol. Methods, 67: 379-388).

For assay [5], the system named is MC3T3 H1 osteoblasts. Description: Adhesion of MC3T3 H1 osteoblasts to BSA-pretreated polystyrene surfaces coated with thiol-RGD peptides via sulpho-SMPB. The settings on record: for stimulation of the adhesion of cultured mouse MC3T3 H1 osteoblasts: BSA-pretreated polystyrene, peptide coupled via sulpho-SMPB, FIG. 2. The assay is classed as cell-based, mouse. On the procedure:
(§6) The covalent coupling of the peptides according to the invention with sulphosuccinimidyl 4-(p-maleimidophenyl)butyrate (sulpho-SMPB) to culture surfaces of polystyrene precoated with bovine serum albumin (BSA) was accomplished following the established processes of Singer et al., 1987, J. Cell. Biol. 104: 573, or of Ruoslahti et al. (1982, Methods. Enzymol., 82: 803-831).
To do this, 48-well plates (Costar, "non-tissue culture treated", Art. No. 3547) were each coated with 250 μl of PBS (phosphate-buffered saline), pH=8.3, 2% BSA, per well and incubated overnight at room temperature in order to generate a BSA layer on the polystyrene. The plates were then washed with 250 μl of PBS, pH=8.3, per well and incubated at room temperature for 1 hour with 250 μl each of a solution containing 100 μg/ml of SMPB in PBS, pH 8.3. Washing of the wells was then carried out three times using 250 μl of PBS, pH 8.3, each time. For the preparation of the coating solutions, the appropriate thiol-RGD peptide was prepared in the following final concentrations in PBS, pH 8.3: 1 nM, 10 nM, 100 nM, 1 μM, 10 μM, 100 μM and 1 mM. After addition of 250 μl each of coating solution/well, the plates were incubated at room temperature overnight and then washed three times with PBS, pH 8.3. By addition of 250 μl each of a 5% strength BSA solution in PBS, pH 7.4, subsequent incubation for 2 hours at room temperature and washing with PBS, pH 7.4, non-specific cell-binding sites were blocked. Polystyrene surfaces, which from the coating were treated with a 5% strength BSA solution identically to the positive samples, functioned as negative coating controls. The adhesion of four cell cultures which were obtained from three different species was then investigated on the abovementioned surfaces coated with RGD peptide:
osteoblast cell line MC3T3 H1, obtained from the calvaria of neonatal mice (Heermeier et al., 1995, Cells and Materials, 5: 309-321), and
The cell species described were inoculated with an inoculation density of 48,000 cells/cm^2 into, as described above, Costar-48 well plates coated with RGD peptide, and then incubated for 1 hour at 37° C., 95% atmospheric humidity and 5% CO2. Cells unadhered during the experiment were then washed off twice with PBS, pH 7.4.
as §5

For assay [6], the system named is primary rat osteoblasts. The experiment in a line: Adhesion of primary rat osteoblasts to BSA-pretreated polystyrene surfaces coated with thiol-RGD peptides via sulpho-SMPB. Format: cell-based. The conditions noted are these: 48,000 cells/cm^2, 1 hour. On the procedure: as §6
(§7) To do this, 48-well plates (Costar, "non-tissue culture treated", Art. No. 3547) were each coated with 250 μl of PBS (phosphate-buffered saline), pH=8.3, 2% BSA, per well and incubated overnight at room temperature in order to generate a BSA layer on the polystyrene. The plates were then washed with 250 μl of PBS, pH=8.3, per well and incubated at room temperature for 1 hour with 250 μl each of a solution containing 100 μg/ml of SMPB in PBS, pH 8.3. Washing of the wells was then carried out three times using 250 μl of PBS, pH 8.3, each time. For the preparation of the coating solutions, the appropriate thiol-RGD peptide was prepared in the following final concentrations in PBS, pH 8.3: 1 nM, 10 nM, 100 nM, 1 μM, 10 μM, 100 μM and 1 mM. […]
as §5

Assay [7] has as its system osteoblast cultures. The experiment in a line: Adhesion of the different osteoblast cell species to thiolpeptide-coated BSA-polystyrene surfaces (statements over all cultures). The assay is classed as cell-based, mouse, human, rat. The settings on record: all osteoblast cultures employed. On the procedure: as §6, §7, §5
In assay [8] the test system is human melanoma cell line M21L. The experiment in a line: Adhesion of alphav beta3-/alphav beta5-negative control cells M21L to thiolpeptide-coated BSA-polystyrene surfaces. Format: cell-based. The conditions noted are these: BSA-pretreated polystyrene coated with thiolpeptide. On the procedure:
as §6, §7, §5

Assay [9] has as its system primary human osteoblasts. The experiment in a line: Adhesion of primary human osteoblasts to BSA-pretreated polystyrene surfaces coated with thiol-RGD peptides via sulpho-SMPB. The assay is classed as cell-based. The settings on record: 48,000 cells/cm^2, 1 hour. The method, then: as §6, §7, §5
Assay [10] relates to primary human osteoprogenitor cells. The experiment in a line: Adhesion of primary human osteoprogenitor cells to BSA-pretreated polystyrene surfaces coated with thiol-RGD peptides via sulpho-SMPB. Format: cell-based. The conditions noted are these: 48,000 cells/cm^2, 1 hour. The method, then:
as §6, §7, §5

[11] abbreviates: 1 μM peptide in the coating solution.
The mark [12] stands for this setting: 10 μM peptide in the coating solution.
Where [13] appears, read: 100 μM peptide in the coating solution.
The mark [14] stands for this setting: second part experiment, 100 μM peptide in the coating solution.

With “cyclo (RGDf[acrylic-ahx-tEG-KG]) [acrylate peptide 5]”, the “cell adhesion, Abs, osteoblasts/platelets inoculated as a mixture” value in assay [1] is given as “about 6.5 Abs”. Besides, the “cell adhesion, calculated Abs (405 nm), platelets” value in assay [2] (setting [11]) is listed as “about 0.2 Abs”; in assay [2] (setting [12]), “about 0.5 Abs”; in assay [2] (setting [13]) it was “about 4.0 Abs”. In assay [2] (setting [14]), the “cell adhesion, Abs, platelets alone” value was “about 4.0 Abs”. For the same substance, the “cell adhesion, calculated Abs (405 nm), osteoblasts” value in assay [3] (setting [11]) is recorded as “about 0.2 Abs”; in assay [3] (setting [12]), “about 1.0 Abs”; in [3] (setting [13]) it was “about 1.5 Abs”. The “cell adhesion, Abs, osteoblasts alone” value in assay [3] (setting [14]) was “about 1.5 Abs”.
As to “cyclo(RGDf[acrylic-ahx-ahx-K]) [acrylate peptide 2]”, the “cell adsorption rates increased in comparison with uncoated surfaces” value is on record as 5-15 fold in assay [4] (bone cement shaped articles, FIG. 8); 2-5 fold in assay [4] (porous PMMA/PHEMA granule shaped articles, FIG. 9); 2-3 fold in [4] (porous Plex Y7H granule shaped articles, FIG. 10). Moreover, in assay [4] (different PMMA moulded articles, 48,000 cells/cm^2, 1 hour), the maximal adsorption rates is recorded as 80-100%. Moreover, in assay [4] (different PMMA moulded articles, read-out: half-maximal cell bindings, RGD peptide concentration in the coating solution), the EC50 lay within 0.001 to 10 µM.
For “cyclo-RβADfK-NH--CO--CH2 --CH2 --S-- (sulpho-SMPB) [thiolpeptide control, reference compound]”, the “stimulation of the adhesion of cultured mouse MC3T3 H1 osteoblasts” value in assay [5] is listed as “no significant effect”.
Take “cyclo-RGDfK NH--CO--CH2 --CH2 --CO--NH--CH2 --CH2 --S-- (sulpho-SMPB) [thiolpeptide 2-(sulpho-SMPB) derivative]”: the “maximum adsorption rate (of the inoculated cells)” value in assay [6] is “about 70%”; in [5] (MC3T3 H1 mouse osteoblasts, 48,000 cells/cm^2, 1 hour) it was 90-100%; in assay [9], “about 80%”; in assay [10] it was “about 80%”. Moreover, in assay [5], the “stimulation of the adhesion of cultured mouse MC3T3 H1 osteoblasts” value was “strong and dose-dependent stimulation”. Further, the “cell adsorption rates raised compared with 5% BSA-coated surfaces” value in assay [7] is given as 20-40 fold. Moreover, the “cell adhesion of alphav beta3-/alphav beta5-negative control cells (M21L)” value in assay [8] is reported as “do not show any significant cell adhesion”.
